Holding throughout (format): cell-based
Series [1] addresses T1, human Nav1.5 (late current) (Homo sapiens, UniProt Q14524).
T1 construct: host or cells: HEK293
Kind of series: Nav1.5 Late Current Assay (QPatch HT whole-cell patch clamp, 30 nM ATX-II). The conditions noted are these: HEK293 cells stably expressing human Nav1.5, pH 7.3, late current with 30 nM ATX-II, read-out: percent inhibition hNav1.5 Late (5 uM). As for the experimental part:
(§1) In vitro Na+ Current Inhibition Assays were performed by Eurofins Discovery (St Charles, MO). All compound functional activity determinations were determined through electrophysiological analyses of Na+ currents in HEK293 cells expressing a stably transfected Na+ channel (human Nav1.1, 1.2, 1.3, 1.5, 1.6, 1.7, or 1.8). After harvesting with Accutase cells are maintained in serum free medium at room temperature prior to electrophysiological recording utilizing the QPatch HT automated whole-cell patch-clamp platform (Sophion Bioscience, Woburn MA). Stock solution aliquots of the test compound are prepared in DMSO at 300× the final assay concentrations, and stored at −20° C. until the day of assay. On the day of the assay, an aliquot of the stock solution is thawed and diluted into external solution (137 mM NaCl, 4 mM KCl, 1 mM MgCl2, 1.8 mM CaCl2, 10 mM HEPES, 10 mM Glucose (pH 7.3, titrated with 10M NaOH) to make final test concentrations. A final concentration of 0.33% DMSO is maintained for each concentration of the assay compounds. Internal solution for recordings of Na+ consist consists of 100 mM CsF, 45 mM CsCl, 5 mM NaCl, 10 mM HEPES, 5 mM EGTA (pH 7.3, titrated with 1M CsOH).
Onset and steady state induction of late Nav1.5 current was measured using a pulse pattern, repeated every 5 sec, consisting of a hyperpolarizing pulse to −120 mV for a 200 ms duration, depolarization to −15 mV amplitude for a 40 ms duration, followed by step to 40 mV for 200 ms and finally a 100 ms ramp (1.2 V/s) to a holding potential of −80 mV. Each concentration of compound was applied for 5 minutes. The assay was performed at room temperature. After establishing vehicle control condition, all further addition of external solutions contain 30 nM ATX-II to activate late currents. Each concentration of compound was also co-applied with 30 nM ATXII to estimate the Nav1.5 late current inhibition. […]. ATXII was used as the agonist positive control and was tested concurrently with the test compound. Ranolazine was used as the positive control and was tested concurrently with the test compound.
Nav1.5 late current was measured as the total charge flowing through the Nav1.5 channels (area under the curve) 5 ms after the Nav1.5 peak current till the end of the test pulse and as charge at their maxima during the ramp. Individual cell results were normalized to their respective vehicle control and the results were averaged. The sodium current was assessed in 30 nM ATXII as vehicle control conditions and then at the end of each five (5) minute compound application in the presence of 30 nM ATXII. Individual cell result was normalized to 30 nM ATXII vehicle control amplitude and the mean±SEM calculated for each compound concentration.

Series [2] deals with T2, human Nav1.5 (pulse 2, state-dependent inhibition) (Homo sapiens, UniProt Q14524).
T2 construct: host or cells: HEK293
Briefly: Two pulse assay protocol, Nav1.5. The conditions noted are these: HEK293 cells stably expressing human Nav1.5, pH 7.3, peak current, pulse 2 (state-dependent), read-out: percent inhibition hNav1.5, Pulse 2 (5 uM). The method, then:
as §1
(§2) Two pulse assay protocol for human Nav1.1, 1.2, 1.3, 1.5, 1.6, 1.7, and 1.8 channels. Mammalian cultured cells expressing the indicated human Nav1.1, 1.2, 1.3, 1.5, 1.6, 1.7 or 1.8 channels were assayed using the The QPatch HT (Sophion Bioscience, Woburn MA) automated system with an intracellular solution (mM) of 100 CsF, 45 CsCl, 5 NaCl, 10 HEPES, 5 EGTA (pH 7.3, titrated with 1M CsOH) and extracellular solution (mM) of 137 NaCl, 4 KCl, 1 MgCl2, 1.8 CaCl2, 10 HEPES, 10 Glucose (pH 7.3, titrated with 10M NaOH). Onset and steady state block of the sodium channel was measured using a pulse pattern, repeated every 20 seconds (s) from a holding potential of −120 mV for 100 ms, and then pulsed to 0 mV for 500 ms to inactivate the Na channels and facilitate inactivated state-dependent binding of the test compounds. The cell membranes were then stepped back to −120 mV for 10 ms to recover from inactivation into resting or closed state (channels with test compound bound to them will not recover from inactivation and will not open) before stepping to 0 mV for 50 ms (pulse 2) to measure Na channels that are available to open. Peak current was measured during the step to 0 mV at pulse 1 and 2 to measure tonic and state-dependent inhibition. Compound activities were assessed by dividing post current amplitude (at the end of each five (5) minute compound application) by the vehicle control amplitude and the mean calculated for each compound concentration. Tetracaine was used as a positive control and was tested concurrently with the test compounds. Current amplitudes in excess of 200 pA at the control stage were analyzed. The amplitude of the current was calculated by measuring the difference between the peak inward current on stepping to 0 mV (i.e. peak of the current) and remaining current at the end of the step. The current was assessed in vehicle control conditions and then at the end of each five (5) minute compound application.

For series [3], the target named is T3, human Nav1.5 (pulse 1, tonic inhibition) (Homo sapiens, UniProt Q14524).
T3 construct: host or cells: HEK293
Kind of series: Two pulse assay protocol, Nav1.5. The conditions noted are these: HEK293 cells stably expressing human Nav1.5, pH 7.3, peak current, pulse 1 (tonic), read-out: percent inhibition hNav1.5, Pulse 1 (5 uM). The method, then: as §1, §2

Series [4] concerns the target T4, human Nav1.7 (Homo sapiens, UniProt Q15858).
T4 construct: host or cells: HEK293
Kind of series: Two pulse assay protocol, Nav1.7. The conditions noted are these: peak current. The method, then:
as §1, §2

Series [5] has as its target T5, human Nav1.6 (Homo sapiens, UniProt Q9UQD0).
T5 construct: host or cells: HEK293
Briefly: Two pulse assay protocol, Nav1.6. The conditions noted are these: peak current. The method, then:
as §1, §2

For series [6], the target named is T6, human Nav1.8 (Homo sapiens, UniProt Q9Y5Y9).
T6 construct: host or cells: HEK293
Briefly: Two pulse assay protocol, Nav1.8. The conditions noted are these: peak current. As for the experimental part: as §1, §2

[7] abbreviates: pulse 1 (tonic), read-out: percent inhibition hNav1.7, Pulse 1 (5 uM).
The mark [8] stands for this setting: pulse 2 (state-dependent), read-out: percent inhibition hNav1.7, Pulse 2 (5 uM).
Where [9] appears, read: pulse 1 (tonic), read-out: percent inhibition hNav1.6, Pulse 1 (5 uM).
The mark [10] stands for this setting: pulse 2 (state-dependent), read-out: percent inhibition hNav1.6, Pulse 2 (5 uM).
[11] abbreviates: pulse 1 (tonic), read-out: percent inhibition hNav1.8, Pulse 1 (5 uM).
[12] abbreviates: pulse 2 (state-dependent), read-out: percent inhibition hNav1.8, Pulse 2 (5 uM).

Where two headings read alike, the source gives them in different places.

T1 sequence (Q14524 whole entry): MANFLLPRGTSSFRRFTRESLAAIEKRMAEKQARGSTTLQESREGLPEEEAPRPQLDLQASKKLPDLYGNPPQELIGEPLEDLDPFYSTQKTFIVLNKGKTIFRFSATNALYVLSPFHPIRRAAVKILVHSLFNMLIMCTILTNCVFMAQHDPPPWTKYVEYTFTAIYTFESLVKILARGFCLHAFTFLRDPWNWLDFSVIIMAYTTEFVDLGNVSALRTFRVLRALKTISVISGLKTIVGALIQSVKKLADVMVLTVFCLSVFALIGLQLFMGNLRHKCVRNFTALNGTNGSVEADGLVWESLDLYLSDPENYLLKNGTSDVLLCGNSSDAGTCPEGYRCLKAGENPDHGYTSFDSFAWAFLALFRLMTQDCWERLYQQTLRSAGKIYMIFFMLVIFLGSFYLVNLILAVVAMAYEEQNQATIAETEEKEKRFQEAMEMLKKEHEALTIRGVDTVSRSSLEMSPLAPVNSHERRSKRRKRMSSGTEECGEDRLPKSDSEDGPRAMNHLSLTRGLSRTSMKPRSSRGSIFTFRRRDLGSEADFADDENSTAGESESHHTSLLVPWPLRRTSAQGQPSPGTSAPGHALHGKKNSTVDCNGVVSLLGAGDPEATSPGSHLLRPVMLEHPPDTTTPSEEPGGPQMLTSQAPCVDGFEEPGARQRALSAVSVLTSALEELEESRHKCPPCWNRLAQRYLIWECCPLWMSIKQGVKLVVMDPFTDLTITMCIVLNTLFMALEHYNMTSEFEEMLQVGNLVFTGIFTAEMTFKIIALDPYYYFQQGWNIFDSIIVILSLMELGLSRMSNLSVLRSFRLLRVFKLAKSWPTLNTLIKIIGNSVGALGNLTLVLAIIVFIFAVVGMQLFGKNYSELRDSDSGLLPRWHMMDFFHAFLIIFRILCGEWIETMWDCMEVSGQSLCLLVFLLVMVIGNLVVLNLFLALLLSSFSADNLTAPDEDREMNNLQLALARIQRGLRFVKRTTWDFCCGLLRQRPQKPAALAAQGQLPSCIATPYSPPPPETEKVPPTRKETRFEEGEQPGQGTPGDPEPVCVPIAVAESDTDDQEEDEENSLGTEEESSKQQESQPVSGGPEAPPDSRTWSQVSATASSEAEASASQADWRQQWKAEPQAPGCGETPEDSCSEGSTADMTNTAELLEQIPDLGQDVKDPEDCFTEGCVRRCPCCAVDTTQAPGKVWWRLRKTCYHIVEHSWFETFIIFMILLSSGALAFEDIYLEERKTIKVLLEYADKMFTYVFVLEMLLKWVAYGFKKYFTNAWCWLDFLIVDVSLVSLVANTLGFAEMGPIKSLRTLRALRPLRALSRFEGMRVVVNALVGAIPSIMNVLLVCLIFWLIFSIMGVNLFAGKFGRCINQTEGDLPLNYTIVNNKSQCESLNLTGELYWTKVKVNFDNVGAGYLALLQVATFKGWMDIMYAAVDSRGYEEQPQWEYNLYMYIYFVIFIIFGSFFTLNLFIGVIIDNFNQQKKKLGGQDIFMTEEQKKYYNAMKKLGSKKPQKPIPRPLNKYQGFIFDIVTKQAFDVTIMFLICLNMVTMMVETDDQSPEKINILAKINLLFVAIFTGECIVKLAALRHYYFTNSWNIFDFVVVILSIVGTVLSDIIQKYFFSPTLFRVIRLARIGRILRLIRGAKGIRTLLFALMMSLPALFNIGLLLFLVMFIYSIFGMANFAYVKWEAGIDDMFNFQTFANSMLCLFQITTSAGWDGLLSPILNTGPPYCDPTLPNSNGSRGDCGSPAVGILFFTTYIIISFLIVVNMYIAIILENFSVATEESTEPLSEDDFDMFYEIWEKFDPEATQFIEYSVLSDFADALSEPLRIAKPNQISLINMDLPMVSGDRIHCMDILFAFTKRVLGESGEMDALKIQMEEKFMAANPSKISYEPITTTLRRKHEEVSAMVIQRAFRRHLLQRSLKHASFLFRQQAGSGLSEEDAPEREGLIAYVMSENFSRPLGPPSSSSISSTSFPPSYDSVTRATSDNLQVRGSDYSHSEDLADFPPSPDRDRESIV
T3 sequence (Q14524 whole entry): as above

Usually inhibition stands for the relative decrease from the control value, in per cent. With `CC(C)Oc1ccc(-c2cnc3ccc(-c4ccc(OC(F)F)cc4)cn23)cc1` [Example C4, 6-[4-(difluoromethoxy)phenyl]-3-[4-(propan-2-yloxy)phenyl]imidazo[1,2-a]pyridine], the inhibition at 5 min, 5 uM in series [1] was greater than 90%.
The same measure, in the same setting: the same measure for `CC(C)Oc1ccc(-c2cnc3ccc(-c4ccc(C5(N)CC5)cc4)cn23)cc1` [Example C15, 1-(4-{3-[4-(propan-2-yloxy)phenyl]imidazo[1,2-a]pyridin-6-yl}phenyl)cyclopropan-1-amine]: less than 50%.
Still for that read-out and setting: the same measure for `CC(C)Oc1ccc(-c2cnc3ccc(-c4ccc(C(N)=O)cc4)cn23)cc1` [Example C16, 4-{3-[4-(propan-2-yloxy)phenyl]imidazo[1,2-a]pyridin-6-yl}benzamide]: less than 50%.
Same read-out and setting: the same measure for `CC(C)Oc1ccc(-c2cnc3ccc(-c4cnn(C5CC5)c4)cn23)cc1` [Example C17, 1-cyclopropyl-4-{3-[4-(propan-2-yloxy)phenyl]imidazo[1,2-a]pyridin-6-yl}-1H-pyrazole]: less than 50%.
As to `CC(C)Oc1ccc(-c2cnc3ccc(-c4ccc(OC(C)C)c(F)c4)cn23)cc1` [Example C24, 6-[3-fluoro-4-(propan-2-yloxy)phenyl]-3-[4-(propan-2-yloxy)phenyl]imidazo[1,2-a]pyridine], the inhibition at 5 min, 5 µM was greater than 90% in series [2] and less than 50% in series [3]. Also, the inhibition at 5 µM in series [4] (setting [7]) is less than 50%; in series [4] (setting [8]), 50 to 90%; in series [5] (setting [9]) it was less than 50%; in series [5] (setting [10]), greater than 90%.
Consider `CC(C)Oc1ccc(-c2ccc3ncc(-c4cccc(OC(C)C)c4)n3c2)cc1` [Example C35, 3-[3-(propan-2-yloxy)phenyl]-6-[4-(propan-2-yloxy)phenyl]imidazo[1,2-a]pyridine], for which, in series [1], the inhibition at 5 min, 5 uM is greater than 90%.
Consider `CC(C)Oc1ccc(-c2ccc3ncc(-c4ccc(OC(F)F)cc4)n3c2)cc1` [Example C40, 3-[4-(difluoromethoxy)phenyl]-6-[4-(propan-2-yloxy)phenyl]imidazo[1,2a]pyridine], for which the inhibition at 5 min, 5 uM in series [1] was less than 50%.
Same read-out and setting: the same measure for `COc1cc2ncc(-c3ccc(OC(C)C)cc3)n2cc1-c1ccc(OC(C)C)cc1` [Example C49, 7-methoxy-3,6-bis[4-(propan-2-yloxy)phenyl]imidazo[1,2-a]pyridine]: less than 50%.
On the same count and under the same terms, for `CC(C)Oc1ccc(-c2cn3c(-c4ccc(OC(C)C)cc4)cnc3cc2C#N)cc1` [Example C52, 3,6-bis(4-isopropoxyphenyl)imidazo[1,2-a]pyridine-7-carbonitrile] the value was less than 50%; for `Cc1cc2ncc(-c3ccc(C(C)(C)O)cc3)n2cc1-c1ccc(OC(C)C)cc1` [Example C56, 2-(4-(6-(4-isopropoxyphenyl)-7-methylimidazo[1,2-a]pyridin-3-yl)phenyl)propan-2-ol], less than 50%.
In the case of `COc1cc(OC)cc(-c2ccc3ncc(-c4ccc(OC(F)(F)F)cc4)n3c2)c1` [Example C58, 6-(3,5-dimethoxyphenyl)-3-(4-(trifluoromethoxy)phenyl)imidazo[1,2-a]pyridine], the inhibition at 2.5 µM was less than 50% in series [5] (pulse 1 (tonic), read-out: percent inhibition hNav1.6, Pulse 1 (2.5 uM)) and greater than 90% in series [5] (pulse 2 (state-dependent), read-out: percent inhibition hNav1.6, Pulse 2 (2.5 uM)). Also, the inhibition at 5 µM in series [6] (setting [11]) and in series [6] (setting [12]) was 50 to 90% each time.
For `COc1cc(OC)cc(-c2cnc3ccc(-c4ccc(OC(F)(F)F)cc4)cn23)c1` [Example C59, 3-(3,5-dimethoxyphenyl)-6-(4-(trifluoromethoxy)phenyl)imidazo[1,2-a]pyridine], the inhibition at 5 µM in series [6] (setting [11]) and in series [6] (setting [12]) was less than 50% in each case.
Take `FC(F)(F)Oc1ccc(-c2cnc3ccc(C(F)(F)F)cn23)cc1` [Example C60, 3-(4-(trifluoromethoxy)phenyl)-6-(trifluoromethyl)imidazo[1,2-a]pyridine]: the inhibition at 5 µM in series [5] (setting [9]), in series [5] (setting [10]), in series [6] (setting [11]) and in series [6] (setting [12]) was less than 50% each time.
Consider `CC(C)Oc1ccc(-c2cnc3ccc(C(F)(F)F)cn23)cc1` [Example C61, 3-(4-isopropoxyphenyl)-6-(trifluoromethyl)imidazo[1,2-a]pyridine], for which the inhibition at 5 µM in series [5] (setting [9]), in series [5] (setting [10]), in series [6] (setting [11]) and in series [6] (setting [12]) was less than 50% each time.
Turning to `Cc1cc(-c2cnc3ccc(-c4ccc(OC(C)C)cc4)cn23)cnc1OC(C)C` [Example C71, 3-(6-isopropoxy-5-methylpyridin-3-yl)-6-(4-isopropoxyphenyl)imidazo[1,2-a]pyridine], the inhibition at 5 min, 5 µM in series [2] was greater than 90%; in series [3], less than 50%. Moreover, the inhibition at 5 µM in series [4] (setting [7]) was less than 50%; in series [4] (setting [8]) it was greater than 90%; in series [5] (setting [9]) it was less than 50%; in series [5] (setting [10]), greater than 90%.
Take `CC(C)Oc1ccc(-c2ccc3ncc(-c4ccc(C(C)(C)C)cc4)n3c2)cc1` [Example C87, 3-(4-(tert-butyl)phenyl)-6-(4-isopropoxyphenyl)imidazo[1,2-a]pyridine]: the inhibition at 5 min, 5 µM in series [2] is greater than 90%; in series [3], less than 50%. Moreover, the inhibition at 5 µM in series [4] (setting [7]) was less than 50%; in series [4] (setting [8]) it was greater than 90%; in series [5] (setting [9]) it was less than 50%; in series [5] (setting [10]), greater than 90%.
`CC(C)Oc1ccc(-c2ccc3ncc(-c4ccc(C(C)(C)C)nc4)n3c2)cc1` [Example C89, 3-(6-(tert-butyl)pyridin-3-yl)-6-(4-isopropoxyphenyl)imidazo[1,2-a]pyridine]: the inhibition at 5 min, 5 µM is 50 to 90% in series [2] and less than 50% in series [3]. The inhibition at 5 µM in series [4] (setting [7]) is less than 50%; in series [4] (setting [8]) it was greater than 90%; in series [5] (setting [9]), less than 50%; in series [5] (setting [10]) it was greater than 90%.

The record behind these values is patent US20230303569A1, “HETEROCYCLIC COMPOUNDS AS THERAPEUTIC AGENTS” (Arisan Therapeutics Inc., priority 2021, published 2023).
